# Columns and labels:
# [1] = test system: murine leukemia (L1210) cells; test: In vitro antiproliferative assay, L1210 cells; assay type: cell-based; settings: Mus musculus
# Source text: In Table 1 we report the in vitro antiproliferative activity of 2-(3′,4′,5′-trimethoxyanilino)-4,5,6,7-tetrahydrothieno[2,3-c]pyridine derivatives 3a–3j and the related 4,5,6,7-tetrahydrobenzo[b]thiophenes 3k–3p against a panel of three cell lines, which were derived from different cancer types, including murine leukemia (L1210), human T-lymphoblastoid leukemia (CEM), and human cervix carcinoma (HeLa) cells.
# (§1) Murine leukemia L1210, human T-lymphocyte leukemia CEM, human cervix carcinoma (HeLa), and human chronic myelogenous leukemia K562 cells (3–5 × 10^4 cells) and a serial (5-fold) dilution of the test compounds were added to a 96-well microtiter plate. The cells were incubated for 72 h at 37 °C in a humidified 5% CO2 atmosphere. At the end of the incubation period, the cells were counted in a Coulter Counter (Coulter Electronics Ltd., Harpenden Herts, United Kingdom). The IC50 (50% inhibitory concentration) was defined as the concentration of compound that inhibited cell proliferation by 50%. The IC50 values represent the average (± standard deviation) of three independent experiments. Human peripheral blood mononuclear cells (PBMC) were obtained from healthy donors by centrifugation with Ficoll-Paque Plus (GE Healthcare Bio-Sciences AB, Uppsala).
# [2] = test system: human T-lymphoblastoid leukemia (CEM) cells; test: In vitro antiproliferative assay, CEM cells; assay type: cell-based; settings: CCRF-CEM; human T-lymphocyte CEM, 72 h, cell count; mean ± SE
# Procedure: as §1, with “The IC50 (50% inhibitory concentration) was defined as the concentration of compound that inhibited cell proliferation by 50%.” left out
# [3] = test system: human cervix carcinoma (HeLa) cells; test: In vitro antiproliferative assay, HeLa cells; assay type: cell-based; settings: human cervix carcinoma HeLa, 72 h, cell count; mean ± SE
# Procedure: as §1, with “The IC50 (50% inhibitory concentration) was defined as the concentration of compound that inhibited cell proliferation by 50%.” left out
# Bovine brain tubulin = test: Inhibition of tubulin polymerization (turbidimetric assembly); assay type: biochemical; settings: tubulin at 10 μM, 20 min incubation; read-out: Tubulin assembly IC50 ± SD
# Procedure: (§2) Bovine brain tubulin was purified as described previously. To evaluate the effect of the compounds on tubulin assembly in vitro [59], varying concentrations were preincubated with 10 μM tubulin in 0.8 M glutamate buffer at 30 °C and then cooled to 0 °C. After addition of GTP, the mixtures were transferred to 0 °C cuvettes in a recording spectrophotometer and warmed to 30 °C, and the assembly of tubulin was observed turbidimetrically. […] The ability of the test compounds to inhibit colchicine binding to tubulin was measured as described earlier, except that the reaction mixtures contained 1 μM tubulin, 5 μM of [^3H]colchicine, and test compounds 3a or 3b.
# [4] = test system: tubulin (colchicine site); test: Inhibition of [3H]colchicine binding to tubulin; set-up: species or system Bovine; settings: tubulin 1 μM, colchicine 5 μM, compound 5 μM
# Procedure: as §2
# [5] = murine leukemia L1210, 72 h, cell count, mean ± SE
"IC50 [1, 5] [µM]",IC50 [2] [µM],IC50 [3] [µM],melting point [°C],Compound,"IC50 ([1]; L1210, 72 h) [µM]",IC50 (Bovine brain tubulin) [nM],Colchicine binding % ± SD (inhibition of [3H]colchicine binding) [4] [%]
19 ± 3,19 ± 2,20 ± 4,60 to 62,"CCOC(=O)N1CCc2c(sc(Nc3cc(OC)c(OC)c(OC)c3)c2C(=O)OC(C)(C)C)C1 [Compound 3j, 3-tert-butyl 6-ethyl 2-((3,4,5-trimethoxyphenyl)amino)-4,5-dihydrothieno[2,3-c]pyridine-3,6(7H)-dicarboxylate]",–,–,–
26 ± 2,43 ± 12,48 ± 17,90 to 91,"COC(=O)c1c(Nc2cc(OC)c(OC)c(OC)c2)sc2c1CCN(C(C)=O)C2 [Compound 3e, Methyl 6-acetyl-2-((3,4,5-trimethoxyphenyl)amino)-4,5,6,7-tetrahydrothieno[2,3-c]pyridine-3-carboxylate]",–,–,–
112 ± 1,88 ± 12,169 ± 18,98 to 100,"CCOC(=O)c1c(Nc2cc(OC)c(OC)c(OC)c2)sc2c1CCC(c1ccccc1)C2 (centres unmarked) [Compound 3p, Ethyl 6-phenyl-2-((3,4,5-trimethoxyphenyl)amino)-4,5,6,7-tetrahydrobenzo[b]thiophene-3-carboxylate]",–,–,–
18 ± 3,20 ± 2,14 ± 1,50 to 52,"COC(=O)N1CCc2c(sc(Nc3cc(OC)c(OC)c(OC)c3)c2C(=O)OC(C)(C)C)C1 [Compound 3i, 3-tert-butyl 6-methyl 2-((3,4,5-trimethoxyphenyl)amino)-4,5-dihydrothieno[2,3-c]pyridine-3,6(7H)-dicarboxylate]",–,–,–
101 ± 9,102 ± 50,48 ± 6,147 to 148,"COC(=O)c1c(Nc2cc(OC)c(OC)c(OC)c2)sc2c1CCC(c1ccccc1)C2 (centres unmarked) [Compound 3n, Methyl 6-phenyl-2-((3,4,5-trimethoxyphenyl)amino)-4,5,6,7-tetrahydrobenzo[b]thiophene-3-carboxylate]",–,–,–
17 ± 5,16 ± 4,23 ± 10,140 to 141,"COC(=O)c1c(Nc2cc(OC)c(OC)c(OC)c2)sc2c1CCN(C(=O)OC)C2 [Compound 3c, Dimethyl 2-((3,4,5-trimethoxyphenyl)amino)-4,5-dihydrothieno[2,3-c]pyridine-3,6(7H)-dicarboxylate]",–,–,–
25 ± 3,34 ± 9,24 ± 3,93 to 95,"CCOC(=O)c1c(Nc2cc(OC)c(OC)c(OC)c2)sc2c1CCN(C(C)=O)C2 [Compound 3h, Ethyl 6-acetyl-2-((3,4,5-trimethoxyphenyl)amino)-4,5,6,7-tetrahydrothieno[2,3-c]pyridine-3-carboxylate]",–,–,–
86 ± 41,78 ± 33,66 ± 6,90 to 92,"CCOC(=O)c1c(Nc2cc(OC)c(OC)c(OC)c2)sc2c1CCC(C)C2 (centres unmarked) [Compound 3o, Ethyl 6-methyl-2-((3,4,5-trimethoxyphenyl)amino)-4,5,6,7-tetrahydrobenzo[b]thiophene-3-carboxylate]",–,–,–
6 ± 0.3,3.7 ± 1.2,41 ± 27,–,"CCOC(=O)N1CCc2c(sc(NC(=O)c3cccs3)c2C#N)C1 [Compound 2b, reference compound]",–,–,–
> 250,> 250,202 ± 25,112 to 114,"COc1cc(Nc2sc3c(c2C#N)CCC(C)C3)cc(OC)c1OC (centres unmarked) [Compound 3k, 6. -Methyl-2-((3,4,5-trimethoxyphenyl)amino)-4,5,6,7-tetrahydrobenzo[b]thiophene-3-carbonitrile]",–,–,–
82 ± 13,45 ± 17,11 ± 6,127 to 129,"COC(=O)c1c(Nc2cc(OC)c(OC)c(OC)c2)sc2c1CCC(C)C2 (centres unmarked) [Compound 3m, Methyl 6-methyl-2-((3,4,5-trimethoxyphenyl)amino)-4,5,6,7-tetrahydrobenzo[b]thiophene-3-carboxylate]",–,–,–
15 ± 2,12 ± 4,16 ± 3,76 to 78,"CCOC(=O)N1CCc2c(sc(Nc3cc(OC)c(OC)c(OC)c3)c2C(=O)OC)C1 [Compound 3d, 6-Ethyl 3-methyl 2-((3,4,5-trimethoxyphenyl)amino)-4,5-dihydrothieno[2,3-c]pyridine-3,6(7H)-dicarboxylate]",–,–,–
92 ± 29,58 ± 53,124 ± 8,169 to 170,"COc1cc(Nc2sc3c(c2C#N)CCC(c2ccccc2)C3)cc(OC)c1OC (centres unmarked) [Compound 3l, 6. -Phenyl-2-((3,4,5-trimethoxyphenyl)amino)-4,5,6,7-tetrahydrobenzo[b]thiophene-3-carbonitrile]",–,–,–
–,–,–,–,"COc1ccc(/C=C\c2cc(OC)c(OC)c(OC)c2)cc1O [CA-4, combretastatin A-4, reference compound]",0.0028 ± 0.0011,[…],98 ± 0.9
19,19 ± 1,19 ± 4,67 to 69,"CCOC(=O)c1c(Nc2cc(OC)c(OC)c(OC)c2)sc2c1CCN(C(=O)OCC)C2 [Compound 3g, Diethyl 2-((3,4,5-trimethoxyphenyl)amino)-4,5-dihydrothieno[2,3-c]pyridine-3,6(7H)-dicarboxylate]",–,–,–
22 ± 4,22 ± 8,67 ± 20,128 to 130,"CCOC(=O)c1c(Nc2cc(OC)c(OC)c(OC)c2)sc2c1CCN(C(=O)OC)C2 [Compound 3f, 3-Ethyl 6-methyl 2-((3,4,5-trimethoxyphenyl)amino)-4,5-dihydrothieno[2,3-c]pyridine-3,6(7H)-dicarboxylate]",–,–,–
